Measured values published in article PMC11240562 (2024).

Experiments:
[1] = tested on: ODN1/ODN2 duplex (X = A, Y = T) (DNA, duplex) CTCAGAGTAAGG/CCTTACTCTGAG; assay: UV melting; details: Na+ (150 mM NaCl, sodium phosphate); no significant Tm change; duplex 2 μM, CB[7] 4 μM; 10 mM phosphate pH 7.0
[2] = tested on: ODN1/ODN2 duplex (X = ^Am2dA, Y = T) (DNA, duplex, ^Am2dA (N6-adenosine bearing 1-aminoadamantane via C2 linker) at 6 of strand 1) CTCAGAGTAAGG/CCTTACTCTGAG; assay: UV melting; details: Na+ (150 mM NaCl, sodium phosphate); destabilisation (Tm lowered by CB[7]); duplex 2 μM, CB[7] 4 μM; 10 mM phosphate pH 7.0
[3] = tested on: ODN3/ODN4 duplex (X = ^Am2dA, Y = T), dye-labelled (DNA, duplex, ^Am2dA (N6-adenosine bearing 1-aminoadamantane via C2 linker) at 6 of strand 1) CTCAGAGTAAGG/CCTTACTCTGAG; assay: FAM/Dabcyl fluorescence time course, kout/kin; details: Na+ (150 mM NaCl, sodium phosphate), apparent, host binds guest tethered to DNA, duplex dissociates, 10 mM phosphate pH 7.0, 37 °C
[4] = tested on: ODN1/ODN2 duplex (X = ^Am3dA, Y = T) (DNA, duplex, ^Am3dA (N6-adenosine bearing 1-aminoadamantane via C3 linker) at 6 of strand 1) CTCAGAGTAAGG/CCTTACTCTGAG; assay: UV melting; details: Na+ (150 mM NaCl, sodium phosphate); destabilisation (Tm lowered by CB[7]); duplex 2 μM, CB[7] 4 μM; 10 mM phosphate pH 7.0
[5] = tested on: ODN1/ODN2 duplex (X = ^Am4dA, Y = T) (DNA, duplex, ^Am4dA (N6-adenosine bearing 1-aminoadamantane via C4 linker) at 6 of strand 1) CTCAGAGTAAGG/CCTTACTCTGAG; assay: UV melting; details: Na+ (150 mM NaCl, sodium phosphate); destabilisation (Tm lowered by CB[7]); duplex 2 μM, CB[7] 4 μM; 10 mM phosphate pH 7.0

binding [1]: no
ΔTm [2]: 20.4 °C
Kd [3]: 1.0 × 10^–9 M
ΔTm [4]: 3.6 °C
ΔTm [5]: 4.7 °C
Structure (SMILES): O=C1N2CN3C(=O)N4CN5C(=O)N6CN7C(=O)N8CN9C(=O)N%10CN%11C(=O)N%12CN%13C(=O)N%14CN1C1C2N2CN%15C(=O)N(CN%16C(=O)N(CN%17C(=O)N(CN%18C(=O)N(CN%19C(=O)N(CN%20C(=O)N(CN1C2=O)C%14C%13%20)C%12C%11%19)C%10C9%18)C8C7%17)C6C5%16)C4C3%15 (centres unmarked)
